{"source": "paper PMC6727617", "about": "“Exploiting Designed Oxidase–Peroxygenase Mutual Benefit System for Asymmetric Cascade Reactions” (Journal of the American Chemical Society, 2019)", "key": {"[1]": {"target": "T1, ANEH (Aspergillus niger, UniProt Q9UR30)", "T1 construct": "gene hyl1; recombinant, co-expressed with P450-BM3 SO5 under the same T7 promoter; lyophilized cell-free lysate powder", "T1 sequence (Q9UR30 1-398)": "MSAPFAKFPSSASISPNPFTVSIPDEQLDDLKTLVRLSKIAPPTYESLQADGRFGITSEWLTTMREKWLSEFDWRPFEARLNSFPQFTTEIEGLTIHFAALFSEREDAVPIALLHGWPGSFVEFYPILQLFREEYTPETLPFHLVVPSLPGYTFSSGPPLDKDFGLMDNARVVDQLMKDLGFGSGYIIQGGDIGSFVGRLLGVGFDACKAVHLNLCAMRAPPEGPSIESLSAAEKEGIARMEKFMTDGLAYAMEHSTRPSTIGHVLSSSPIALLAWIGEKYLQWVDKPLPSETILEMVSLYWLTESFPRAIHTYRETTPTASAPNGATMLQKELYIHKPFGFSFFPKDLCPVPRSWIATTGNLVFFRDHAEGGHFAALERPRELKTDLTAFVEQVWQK", "test": "one-pot cascade with lyophilized lysate powders, conversion to diol", "type": "biochemical", "conditions": "50 mM PBS pH 8.0, 300 mM NaCl; epoxide formed in situ by P450-BM3 SO5"}, "[2]": {"target": "T2, OleTJE (Jeotgalicoccus sp. ATCC 8456, UniProt E9NSU2)", "T2 construct": "gene JEM45_03820; recombinant; purified enzyme or lyophilized cell-free lysate powder", "T2 sequence (E9NSU2 1-422)": "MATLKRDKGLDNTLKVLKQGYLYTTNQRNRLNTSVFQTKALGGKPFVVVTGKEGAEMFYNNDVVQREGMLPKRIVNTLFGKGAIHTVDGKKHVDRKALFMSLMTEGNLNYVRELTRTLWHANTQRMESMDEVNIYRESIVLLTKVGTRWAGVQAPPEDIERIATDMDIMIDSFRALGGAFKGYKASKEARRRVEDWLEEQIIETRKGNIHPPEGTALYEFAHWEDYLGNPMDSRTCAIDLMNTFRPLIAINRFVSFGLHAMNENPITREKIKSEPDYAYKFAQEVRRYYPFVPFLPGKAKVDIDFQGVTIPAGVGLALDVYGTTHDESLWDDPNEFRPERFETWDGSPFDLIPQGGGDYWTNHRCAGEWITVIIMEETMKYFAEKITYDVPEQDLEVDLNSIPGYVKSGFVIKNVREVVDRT", "test": "GC of styrene / styrene oxide formation in coupled reaction with purified P450-BM3 SO5", "type": "biochemical", "conditions": "no external H2O2, H2O2 from SO5 uncoupling"}}, "data": [{"smiles": "c1ccc([C@@H]2CO2)cc1", "note": "[(R)-styrene oxide]", "values": [{"measurement": "one-pot cascade with lyophilized lysate powders, conversion to diol", "setting": "[1]", "result": "selective hydrolytic ring-opening of the respective epoxide catalyzed by the epoxide hydrolase"}]}, {"smiles": "O=C(O)CCc1ccccc1", "note": "[1a, 3-phenyl propionic acid]", "values": [{"measurement": "GC of styrene / styrene oxide formation in coupled reaction with purified P450-B", "setting": "[2]", "result": "purified OleTJE was mixed with the purified SO5 variant, and tested in the model reaction"}]}, {"smiles": "C=Cc1ccccc1", "note": "[styrene]", "values": [{"measurement": "GC of styrene / styrene oxide formation in coupled reaction with purified P450-B", "setting": "[2]", "result": "OleT-Catalyzed Reaction B Supplies the Necessary Styrene from 3-Phenyl Propionic Acid"}]}]}
